The target of one data set is T1, recombinant human PDE5 (Homo sapiens, UniProt O76074).
T1 construct: purchased BPS Biosciences, San Diego, CA, USA
Nature of the data set: In vitro PDE5 inhibitory activity (IMAP FP phosphodiesterase assay). To be noted: purified PDE5, 50 nM TAMRA-cGMP, 1.5 h at 30 °C; 10 concentrations, at least two replicates; read-out: PDE5 Inhibition IC50. The class given is biochemical. As to the method:
Phosphodiesterase Assay: 5 U/mL of purified PDE5 (BPS Biosciences, San Diego, CA, USA) was added to the wells of black 96-well non-binding plates. Immediately, the protein was treated with the compound or vehicle control and 50 nM TAMRA-cGMP and 50 nM Fluourescein-cAMP (Molecular Devices, Sunnyvale, CA, USA) were added to each assay well. The plates were incubated for 1.5 h at 30 °C. After incubation, the IMAP FP Phosphodiesterase Evaluation Assay (Molecular Devices, Sunnyvale, CA, USA) binding reagent was added to each well and the plates were incubated for an additional 30 min at 30 °C. FP was measured according to manufacturer’s specifications using a Biotech Synergy 4 plate reader. PDE activity was expressed by an IC50 value (50% inhibitory concentration). Data analysis was done through dose-response analysis, which was repeated at least twice to confirm the reproducibility of the IC50 values.
All the synthesized final THβC compounds were tested for their ability to inhibit recombinant human PDE5. Most of the compounds were evaluated in two steps. The first step was the determination of the percentage inhibition at a screening dose of 10 μM performed in triplicate. For compounds displaying a percentage of inhibition >50%, the IC50 was then determined by testing a range of 10 concentrations with at least two replicates per concentration (Table 2).

In data set [1] the target is phosphodiesterase-5 (PDE5). To be noted: previously reported tadalafil analogues, introduction; cited from earlier work.

Turning to `O=C1[C@H]2Cc3c([nH]c4ccccc34)[C@H](c3ccc(Cl)cc3)N2C(=O)CN1CCO` [Compound 6e, (6S,12aR)-6-(4-Chloro-phenyl)-2-(2-hydroxy-ethyl)-2,3,6,7,12,12a-hexahydro-pyrazino[1’,2’:1,6]pyrido[3,4-b]indole-1,4-dione], the melting point lay in the range of 202 to 206 °C. Also, at recombinant human PDE5, the IC50 was 4.7 µM.

For `O=C1[C@H]2Cc3c([nH]c4ccccc34)[C@@H](c3ccc(Cl)cc3)N2C(=O)CN1CCCCO` [Compound 6c, (6R,12aR)-6-(4-Chloro-phenyl)-2-(4-hydroxy-butyl)-2,3,6,7,12,12a-hexahydropyrazino[1’,2’:1,6]pyrido[3,4-b]indole-1,4-dione], the melting point lay within 228 to 230 °C. The IC50 at recombinant human PDE5 came to 0.12 µM.

Turning to `CCN1CC(=O)N2[C@H](c3ccc(Cl)cc3)c3[nH]c4ccccc4c3C[C@@H]2C1=O` [Compound 2], the IC50 in data set [1] is 0.003 µM.

`O=C1[C@H]2Cc3c([nH]c4ccccc34)[C@H](c3ccc(Cl)cc3)N2C(=O)CN1CCCCO` [Compound 6g, (6S,12aR)-6-(4-Chloro-phenyl)-2-(4-hydroxy-butyl)-2,3,6,7,12,12a-hexahydropyrazino[1’,2’:1,6]pyrido[3,4-b]indole-1,4-dione] yielded a melting point of 200 to 203 °C. In addition, at recombinant human PDE5, the IC50 is > 10 µM.

Turning to `O=C1[C@@H]2Cc3c([nH]c4ccccc34)[C@H](c3ccc(Cl)cc3)N2C(=O)CN1CCO` [Compound 6i, (6S,12aS)-6-(4-Chloro-phenyl)-2-(2-hydroxy-ethyl)-2,3,6,7,12,12a-hexahydro-pyrazino[1’,2’:1,6]pyrido[3,4-b]indole-1,4-dione], the melting point was 231 to 233 °C. In addition, the IC50 on recombinant human PDE5 is > 10 µM.

In the case of `O=C1[C@@H]2Cc3c([nH]c4ccccc34)[C@@H](c3ccc(Cl)cc3)N2C(=O)CN1CCCCO` [Compound 6o, (6R,12aS)-6-(4-Chloro-phenyl)-2-(4-hydroxy-butyl)-2,3,6,7,12,12a-hexahydropyrazino[1’,2’:1,6]pyrido[3,4-b]indole-1,4-dione], the melting point was in the range of 199 to 203 °C. Also, the IC50 on recombinant human PDE5 stood at 2.31 µM.

The molecule `NCCCCN1CC(=O)N2[C@@H](c3ccc(Cl)cc3)c3[nH]c4ccccc4c3C[C@@H]2C1=O` [Compound 6h, (6S,12R)-2-(4-Amino-butyl)-6-(4-chloro-phenyl)-2,3,6,7,12,12a-hexahydro-pyrazino[1’,2’:1,6]pyrido[3,4-b]indole-1,4-dione] displayed a melting point of 200 to 202 °C. Moreover, the IC50 on recombinant human PDE5 was found to be 3.1 µM.

`CCN1CC(=O)N2[C@H](c3ccc(Br)cc3)c3[nH]c4ccccc4c3C[C@@H]2C1=O` [Compound 3]: in data set [1], the IC50 is 0.003 µM.

The term IC50 denotes the midpoint of a concentration-inhibition curve. Usually melting point stands for the temperature of the solid-liquid transition.

Source of the values: publication PMC5064235, “Structure-Based Design of Novel Tetrahydro-Beta-Carboline Derivatives with a Hydrophilic Side Chain as Potential Phosphodiesterase Inhibitors” (Scientia Pharmaceutica, 2015).
